In article PMC6611822, “Enhancement of laccase activity by pre-incubation with organic solvents” (Scientific Reports, 2019):

Assays:
AbLac = test system: T1, AbLac; conditions: 0% acetone pre-incubation; pH 3.0 citrate-phosphate; 30 °C
T1 construct: gene lcc1

TvLac = test system: T2, TvLac; conditions: 0% acetone pre-incubation; pH 3.0 citrate-phosphate; 30 °C
T2 construct: gene LCC1

purified protein = substrate: CCn1c(=NN=c2sc3cc(S(=O)(=O)O)ccc3n2CC)sc2cc(S(=O)(=O)O)ccc21; assay: purified protein; assay type: biochemical, Cerrena; conditions: 0% acetone pre-incubation, pH 3.0 citrate-phosphate, 30 °C, 1.25–800 μM ABTS

| Molecule | Km (AbLac) [µM] | Km (TvLac) [µM] | Km (purified protein) [µM] | kcat/Km (purified protein) [M⁻¹ s⁻¹] |
| --- | --- | --- | --- | --- |
| CCn1c(=NN=c2sc3cc(S(=O)(=O)O)ccc3n2CC)sc2cc(S(=O)(=O)O)ccc21 [ABTS, 2,2′-azino-bis(3-ethylbenzothiazoline-6-sulphonic acid)] | 212 ± 19.5 | 29 ± 2.1 |  |  |
| DLac (Cerrena) (protein, source not restated here; 494 C atoms superimposed in the crystal structures) AVGPVTDIHIVNKDIAPDGFSRPSVLAGGTFPGPLITGQKGDNFKLNVVDDLTDASMLKSTSIHWHGFFQKGTNWADGPAFVNQCPISTGNSFLYNFQVPDQAGTYWYHSHLSTQYCDGLRGAFVVYDPTDPHKALYDVDDESTVITLADWYHTLARQIVGVAIADTTLINGLGRNTNGPADAALAVINVEAGKRYRLRLVSISCDPNYVFSIDNHDFNIIEVDGVNSKPLNVDSIQIFAGQRYSAVLNANQPVGNYWVRANPNLGTTGFTGGINSAILRYKGAPVAEPTTTQTTSTKPLQEPNLRPLVSMPVPGSATPGGVDVVHNLILGFSAGKFTINGAAFTPPSVPVLLQILSGTTNAQDLLPSGSVITLPIGKTIELTLAAGVLGGPHPFHLHGHNFHVVRSAGQTTPNYVDPIVRDVVNTGGTGDNVTIRFTTDNPGPWFLHCHIDWHLEAGFAVVFAEGVNQTNAANPTPADWNNLCNIYNALADGDK |  |  | 24 ± 3.9 | 1.47e+09 ± 3.1e+08 |
